“And” between values parts separate entries of the source, which are not always exact repeats. Identical values can stand only once.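 Growth conditions: 96-well plates. Treatment: test compound, 48 hours, 5 concentrations. Analysis: linear interpolation between bracketing concentrations; unreached endpoints set to highest concentration. GI50: concentration for 50% inhibition of growth. TGI is the concentration that stops growth completely.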
Key:
Assay in all cases: inhibition of tumour cell growth, NCI panel, 48 h
[1] = tested on: MDA-MB-468 breast
[2] = tested on: A549 NSCLC
[3] = tested on: SK-OV-3 ovarian
[4] = tested on: SR leukemia
[5] = tested on: NCI-H522 lung
[6] = tested on: K-562 leukemia
[7] = tested on: NCI-H226 lung
[8] = tested on: M14 melanoma
[9] = tested on: SK-MEL-5 melanoma
[10] = tested on: OVCAR-5 ovarian
[11] = tested on: HCC-2998 colon
[12] = tested on: A498 renal
[13] = tested on: SF-295 CNS
[14] = tested on: T-47D breast
[15] = tested on: RXF 393 renal
[16] = tested on: MOLT-4 leukemia
[17] = tested on: TK-10 renal
[18] = tested on: RPMI-8226 leukemia
[19] = tested on: SN12C renal
[20] = tested on: IGROV1 ovarian
[21] = tested on: HS 578T breast
[22] = tested on: ACHN renal
[23] = tested on: DU-145 prostate
[24] = tested on: COLO 205 colon
[25] = tested on: UACC-257 melanoma
[26] = tested on: HL-60(TB) leukemia
[27] = tested on: UO-31 renal
[28] = tested on: BT-549 breast
[29] = tested on: NCI/ADR-RES ovarian
[30] = tested on: EKVX NSCLC
[31] = tested on: LOX IMVI melanoma
[32] = tested on: CAKI-1 renal
[33] = tested on: CCRF-CEM leukemia
[34] = tested on: 786-0 renal
[35] = tested on: MALME-3M melanoma
[36] = tested on: UACC-62 melanoma

C=C1C(=O)O[C@H]2[C@H]1CC/C(CNS(=O)(=O)c1cccc3ccccc13)=C\CC[C@@]1(C)O[C@@H]21
GI50 [1]: 1090 nM | TGI [1]: 3150 nM

Clc1ccc2c(c1)-c1ccccc1C1=NCCN12
GI50 [1]: 1540 nM | TGI [1]: 3150 nM

COc1ccc2nc(C)cc(Nc3ccccc3O)c2c1
GI50 [1]: 13800 nM | TGI [1]: 45600 nM

O=Cc1ccc(O)c2ncccc12
GI50 [1]: 4140 nM | TGI [1]: > 100000 nM

CCOC(=O)C#Cc1c(CC(=O)OCC)nnn1[C@H]1O[C@@H](CO)[C@@H]2OC(C)(C)O[C@@H]21
GI50 [1]: 2090 nM | TGI [1]: 4500 nM

CN(C)c1ccc(O)c2c1C[C@H]1C[C@H]3[C@H](N(C)C)C(=O)C(C(N)=O)=C(O)[C@@]3(O)C(=O)C1=C2O
GI50 [1]: 3240 nM | TGI [1]: 35100 nM

CCCCCN(CCCCC)CC(O)c1cc2c(c3ccccc13)CCCC2 (centres undefined)
GI50 [1]: 4340 nM and 12200 nM | TGI [1]: 17200 nM and 28000 nM

C=CC(=O)Nc1cccc(C)c1Nc1ncc2cc(-c3c(Cl)c(OC)cc(OC)c3Cl)ccc2n1
GI50 [1]: 1870 nM | TGI [1]: 6280 nM

COC(=O)[C@@H](C)C[C@H](Cc1ccccc1)NC(=O)c1csc([C@@H](C[C@H](C(C)C)N(C)C(=O)C2(NC(=O)[C@H]3CCCCN3C)CC2)OC(C)=O)n1
GI50 [1]: 2.51 nM

Oc1ccc(N=Nc2ccc(N=Nc3ccccc3)cc2)cc1
GI50 [1]: 4410 nM | TGI [1]: 19600 nM

COCCNC(=O)c1ccc(-c2nc3ccc4[nH]ncc4c3c3c2CCCC3)cc1
GI50 [1]: 2460 nM | TGI [1]: 50000 nM

COc1ccc2c(c1)OC(N)=C(C#N)C2c1ccc(F)cc1 (centres undefined)
GI50 [1]: 401 nM | TGI [1]: 33900 nM

CC1=C(CCC=O)C2=C(C)C3(CC3)[C@@](C)(O)C(=O)C2=C1
GI50 [2]: 159 nM | TGI [2]: 4210 nM | GI50 [3]: 108 nM | TGI [3]: 606 nM | GI50 [4]: 237 nM | TGI [4]: 1120 nM | GI50 [5]: 167 nM | TGI [5]: 369 nM | GI50 [6]: 330 nM | GI50 [7]: 157 nM | TGI [7]: 587 nM | GI50 [8]: 101 nM | TGI [8]: 254 nM | GI50 [9]: 94.6 nM | TGI [9]: 240 nM | GI50 [10]: 65.6 nM | TGI [10]: 416 nM | GI50 [11]: 121 nM | TGI [11]: 261 nM | GI50 [12]: 269 nM | TGI [12]: 616 nM | GI50 [13]: 222 nM | TGI [13]: 1110 nM | GI50 [14]: 108 nM | TGI [14]: 882 nM | GI50 [15]: 20.7 nM | TGI [15]: 39.4 nM | GI50 [16]: 380 nM | GI50 [17]: 218 nM | TGI [17]: 1080 nM | GI50 [18]: 444 nM | TGI [18]: > 100000 nM | GI50 [19]: 167 nM | TGI [19]: 755 nM | GI50 [20]: 62.5 nM | TGI [20]: 312 nM | GI50 [21]: 302 nM | TGI [21]: 1280 nM | GI50 [22]: 78.9 nM | TGI [22]: 636 nM | GI50 [23]: 37.6 nM | TGI [23]: 845 nM | GI50 [24]: 144 nM | TGI [24]: 303 nM | GI50 [25]: 208 nM | TGI [25]: 464 nM | GI50 [26]: 118 nM | GI50 [1]: 100 nM | TGI [1]: 239 nM | GI50 [27]: 53.4 nM | TGI [27]: 263 nM | GI50 [28]: 35.8 nM | TGI [28]: 157 nM | GI50 [29]: 104 nM | TGI [29]: 330 nM | GI50 [30]: 210 nM | TGI [30]: 546 nM | GI50 [31]: 140 nM | TGI [31]: 350 nM | GI50 [32]: 123 nM | TGI [32]: 855 nM | GI50 [33]: 756 nM | TGI [33]: > 100000 nM | GI50 [34]: 110 nM | TGI [34]: 440 nM | GI50 [35]: 135 nM | TGI [35]: 266 nM | GI50 [36]: 158 nM | TGI [36]: 315 nM

COc1ccc([C@H]2[C@H](O)C(=O)N2c2cc(OC)c(OC)c(OC)c2)cc1Cl
GI50 [1]: < 10 nM | TGI [1]: > 100000 nM

OC(CNc1ccnc2cc(Cl)ccc12)CNC1CCCCC1 (centres undefined)
GI50 [1]: 1700 nM | TGI [1]: 3790 nM

OC(CNC1CCCC1)Cn1c2ccccc2c2ccccc21 (centres undefined)
GI50 [1]: 40700 nM | TGI [1]: > 100000 nM

COc1ccc(/C=C/C(=O)c2cc3c(N)c(C(=O)Nc4ccccc4)sc3nc2C)cc1
GI50 [1]: 179 nM | TGI [1]: > 41700 nM

CS(=O)(=O)Nc1cc(-c2ccc3ncnc(Nc4ccc5c(cnn5Cc5ccccc5F)c4)c3c2)cnc1Cl
GI50 [1]: 609 nM | TGI [1]: 2560 nM

N=C(N)c1ccc(-c2ccc(-c3cccs3)s2)nc1
GI50 [1]: 73.2 nM | TGI [1]: 779 nM

Cc1nn(-c2nc3ccccc3[nH]2)c2c1C(c1ccc3c(c1)OCO3)CC(=O)N2 (centres undefined)
GI50 [1]: 2320 nM | TGI [1]: 6760 nM

CCCN(CCC)C(=O)[C@H](CC)[C@@H]1CC[C@@H](C)[C@@H]([C@H](C)[C@@H](O)[C@@H](C)C(=O)[C@H](CC)C2O[C@]3(C=C[C@@H](O)[C@]4(CC[C@@](C)([C@H]5CC[C@](O)(CC)[C@H](C)O5)O4)O3)[C@H](C)C[C@@H]2C)O1 (some centres undefined)
GI50 [1]: 1720 nM | TGI [1]: 5330 nM

COC(=O)[C@@]1(O)C[C@H]2O[C@]1(C)n1c3ccccc3c3c4c(c5c6ccccc6n2c5c31)C(=O)NC4
GI50 [1]: 1340 nM | TGI [1]: 3060 nM

CCCCCCCCCCCC[n+]1ccc(C(N)=O)cc1
GI50 [1]: 633 nM | TGI [1]: 2920 nM

O=C(N/N=C\c1ccc(N(CCCl)CCCl)cc1Cl)c1cccnc1
GI50 [1]: 45.8 nM | TGI [1]: 328 nM

CCC(C)[C@H]1C(=O)O[C@H](C(C)C)C(=O)N(C)[C@@H](C(C)C)C(=O)O[C@H](C(C)C)C(=O)N(C)[C@@H](C(C)C)C(=O)O[C@H](C(C)C)C(=O)N1C (some centres undefined)
GI50 [1]: 542 nM | TGI [1]: > 10000 nM

NCCCCN(Cc1nc2ccccc2[nH]1)[C@H]1CCCc2cccnc21
GI50 [1]: 10400 nM | TGI [1]: 30800 nM

O=C1/C(=C/c2ccc(Cl)cc2)COc2ccc(O)c(O)c21
GI50 [1]: 1430 nM | TGI [1]: 3220 nM

O=C(CCCCCCC(=O)Nc1ccc2c(c1)/C(=C/c1ccc[nH]1)C(=O)N2)NO
GI50 [1]: 187 nM | TGI [1]: 2090 nM

C=C1CC[C@@H]2[C@](C)(COC(C)=O)[C@H](OC(C)=O)CC[C@@]2(C)[C@@H]1C/C=C1/C(=O)OC[C@H]1OC(C)=O
GI50 [1]: 2040 nM | TGI [1]: 5690 nM

COc1cccc2c(=O)c3c(sc12)c(NCCN(C)C)nc1ccccc13
GI50 [1]: 1500 nM | TGI [1]: 3150 nM

CN1CCn2c(c(Sc3ccc(C(=O)NO)cc3)c3ccccc32)C1=O
GI50 [1]: 1430 nM | TGI [1]: 3250 nM

N#CC1=C(N)Oc2c(sc3c(F)cccc23)C1c1ccc(F)cc1 (centres undefined)
GI50 [1]: 452 nM | TGI [1]: 15400 nM

O=C(/C=C/c1ccc(C(F)(F)F)cc1)c1ccc(Nc2nc(NCCO)nc(N3CCOCC3)n2)cc1
GI50 [1]: 1800 nM | TGI [1]: 3860 nM

Cc1ccc(S(=O)(=O)Nc2nc3ccccc3nc2Nc2ccc3nsnc3c2)cc1
GI50 [1]: 3060 nM and 2660 nM | TGI [1]: 13500 nM and 9260 nM
